Assay results published in ChEMBL document CHEMBL5625167, “In vitro bioevaluation and docking study of dihydrosphingosine and ethambutol analogues against sensitive and multi-drug resistant Mycobacterium tuberculosis” (Eur J Med Chem, 2023).
≈ marks a conversion by molar mass, not a printed value. Where “and” joins values, the source holds several entries; their conditions need not be identical. Equal values may be shown once. Calls of active or inactive are those of the source. No cut-off for these calls is given here.

Legend:
[1] = system: Mycobacterium tuberculosis; assay: (§1) Antimycobacterial activity against isoniazid, rifampicin, ethambutol and pyrazinamide sensitive Mycobacterium tuberculosis H37Rv ATCC 25618 assessed as inhibition of bacterial growth incubated for 7 days by resazurin dye based colorimetric method analysis; format: functional; settings: H37Rv ATCC 25618, 168 h, time 7 day
[2] = system: Mycobacterium tuberculosis; assay: as §1, with “Potency index, ratio of ethambutol MIC to test compound MIC for antimycobacterial” for “Antimycobacterial”; format: functional; settings: time 7 day
[3] = Cytotoxicity against African green monkey Vero cells assessed as reduction in cell population incubated for 48 hrs by MTT assay; format: toxicity, cell-based; settings: chlorocebus sabaeus
[4] = Cytotoxicity against mouse J774.A1 cells assessed as reduction in cell population incubated for 48 hrs by MTT assay; format: toxicity, cell-based
[5] = Cytotoxicity against human HepG2 cells assessed as reduction in cell population incubated for 48 hrs by MTT assay; format: toxicity, cell-based
[6] = system: Mycolicibacterium smegmatis; assay: Antimycobacterial activity against Mycobacterium smegmatis ATCC607 incubated for 24 hrs by resazurin dye based broth microdilution method; format: functional
Staphylococcus aureus = assay: Antibacterial activity against Staphylococcus aureus ATCC 25923 incubated for 18 hrs by resazurin dye based broth microdilution method; format: functional
Klebsiella pneumoniae = assay: Antibacterial activity against Klebsiella pneumoniae ATCC 13883 incubated for 18 hrs by resazurin dye based broth microdilution method; format: functional
[7] = system: Mycobacterium tuberculosis; assay: Synergistic antimycobacterial activity against Mycobacterium tuberculosis H37Rv ATCC 25618 incubated for 7 days by resazurin dye based two-dimensional micro dilution checkerboard assay in presence of rifampicin; format: functional; settings: time 7 day
[8] = system: Mycobacterium tuberculosis; assay: Additive antimycobacterial activity against Mycobacterium tuberculosis H37Rv ATCC 25618 incubated for 7 days by resazurin dye based two-dimensional micro dilution checkerboard assay in presence of ethambutol; format: functional; settings: time 7 day
[9] = system: Mycobacterium tuberculosis; assay: Additive antimycobacterial activity against Mycobacterium tuberculosis H37Rv ATCC 25618 incubated for 7 days by resazurin dye based two-dimensional micro dilution checkerboard assay in presence of isoniazid; format: functional; settings: time 7 day
[10] = system: Mycobacterium tuberculosis; assay: Additive antimycobacterial activity against Mycobacterium tuberculosis H37Rv ATCC 25618 incubated for 7 days by resazurin dye based two-dimensional micro dilution checkerboard assay in presence of amikacin; format: functional; settings: time 7 day
[11] = system: Mycobacterium tuberculosis; assay: Additive antimycobacterial activity against Mycobacterium tuberculosis H37Rv ATCC 25618 incubated for 7 days by resazurin dye based two-dimensional micro dilution checkerboard assay in presence of levofloxacin; format: functional; settings: time 7 day
[12] = system: Mycobacterium tuberculosis; assay: Synergistic antimycobacterial activity against Mycobacterium tuberculosis H37Rv ATCC 25618 assessed as fractional inhibitory concentration index incubated for 7 days by resazurin dye based two-dimensional micro dilution checkerboard assay in presence of rifampicin; format: functional; settings: time 7 day
[13] = system: Mycobacterium tuberculosis; assay: Additive antimycobacterial activity against Mycobacterium tuberculosis H37Rv ATCC 25618 assessed as fractional inhibitory concentration index incubated for 7 days by resazurin dye based two-dimensional micro dilution checkerboard assay in presence of ethambutol; format: functional; settings: time 7 day
[14] = system: Mycobacterium tuberculosis; assay: Additive antimycobacterial activity against Mycobacterium tuberculosis H37Rv ATCC 25618 assessed as fractional inhibitory concentration index incubated for 7 days by resazurin dye based two-dimensional micro dilution checkerboard assay in presence of isoniazid; format: functional; settings: time 7 day
[15] = system: Mycobacterium tuberculosis; assay: Additive antimycobacterial activity against Mycobacterium tuberculosis H37Rv ATCC 25618 assessed as fractional inhibitory concentration index incubated for 7 days by resazurin dye based two-dimensional micro dilution checkerboard assay in presence of amikacin; format: functional; settings: time 7 day
[16] = system: Mycobacterium tuberculosis; assay: Additive antimycobacterial activity against Mycobacterium tuberculosis H37Rv ATCC 25618 assessed as fractional inhibitory concentration index incubated for 7 days by resazurin dye based two-dimensional micro dilution checkerboard assay in presence of levofloxacin; format: functional; settings: time 7 day
[17] = system: Mycobacterium tuberculosis; assay: Antimycobacterial activity against Mycobacterium tuberculosis H37Rv ATCC 25618 assessed as reduction in concentration required to inhibit bacterial growth incubated for 7 days by resazurin dye based two-dimensional micro dilution checkerboard assay in presence of rifampicin relative to control; format: functional; design: scale not given: the % may be the effect or the level left; settings: time 7 day
[18] = system: Mycolicibacterium smegmatis; assay: Antimycobacterial activity against Mycobacterium smegmatis ATCC607 assessed as reduction in bacterial viability at 16 uM incubated for 24 hrs by time kill assay relative to control; format: functional
[19] = system: Mycolicibacterium smegmatis; assay: Antimycobacterial activity against Mycobacterium smegmatis ATCC607 assessed as reduction in bacterial viability at 16 uM measured after 72 hrs by time kill assay in presence of rifampicin relative to control; format: functional
[20] = system: Mycolicibacterium smegmatis; assay: Antimycobacterial activity against Mycobacterium smegmatis ATCC607 infected in mouse J774 cells assessed as reduction in intracellular bacterial count at 32 uM measured after 6 hrs relative to control; format: functional; design: scale not given: the % may be the effect or the level left
[21] = system: Mycolicibacterium smegmatis; assay: Intracellular antimycobacterial activity against Mycobacterium smegmatis ATCC607 infected in mouse J774 cells assessed as reduction in bacterial count at 16 to 32 uM measured after 24 hrs; format: functional, organism-based; settings: dose 16-32 µM
[22] = system: Mycolicibacterium smegmatis; assay: Antimycobacterial activity against Mycobacterium smegmatis ATCC607 infected in mouse J774 cells assessed as reduction in intracellular bacterial count at 2 times MIC measured after 24 hrs relative to control; format: functional; design: scale not given: the % may be the effect or the level left
[23] = system: Mycolicibacterium smegmatis; assay: Antimycobacterial activity against Mycobacterium smegmatis ATCC607 infected in mouse J774 cells assessed as log reduction in intracellular bacterial count at 2 times MIC measured after 24 hrs relative to control; format: functional
[24] = system: Mycolicibacterium smegmatis; assay: Antimycobacterial activity against Mycobacterium smegmatis ATCC607 infected in mouse J774 cells assessed as reduction in intracellular bacterial count at MIC in presence of rifampicin measured for 24 hrs relative to control; format: functional; design: scale not given: the % may be the effect or the level left
[25] = system: Mycobacterium tuberculosis; assay: Antimycobacterial activity against Mycobacterium tuberculosis H37Rv ATCC 25618 assessed as induction of morphological changes by measuring extrusion of cytosolic material at MIC incubated for 96 hrs by TEM analysis; format: functional, organism-based
[26] = system: Mycobacterium tuberculosis; assay: Antimycobacterial activity against Mycobacterium tuberculosis H37Rv ATCC 25618 assessed as induction of morphological changes by measuring disruption and discontinuity of the bacterial envelope at MIC incubated for 96 hrs by TEM analysis; format: functional, organism-based
[27] = system: Mycobacterium tuberculosis; assay: Antimycobacterial activity against Mycobacterium tuberculosis H37Rv ATCC 25618 assessed as induction of morphological changes by measuring increase in lipid inclusions at MIC incubated for 96 hrs by TEM analysis; format: functional, organism-based
[28] = system: Mycolicibacterium smegmatis; assay: Antimycobacterial activity against Mycobacterium smegmatis ATCC607 assessed as reduction in bacterial viability at 16 uM by time kill assay; format: functional, organism-based; settings: time 0-72 hrs, TDE = time-dependent effect
[29] = system: Mycolicibacterium smegmatis; assay: Antimycobacterial activity against Mycobacterium smegmatis ATCC607 infected in mouse J774 cells assessed as log reduction in intracellular bacterial count at MIC in presence of rifampicin measured for 24 hrs; format: functional
[30] = system: Mycobacterium tuberculosis; assay: Antimycobacterial activity against Mycobacterium tuberculosis H37Rv ATCC 25618 incubated for 7 days by resazurin dye based two-dimensional micro dilution checkerboard assay in presence of 1-(benzyloxy)heptadecan-2-amine; format: functional; settings: time 7 day
[31] = system: Mycobacterium tuberculosis; assay: Antimycobacterial activity against Mycobacterium tuberculosis H37Rv ATCC 25618 incubated for 7 days by resazurin dye based two-dimensional micro dilution checkerboard assay in presence of 1-((3,4,5-trimethoxybenzyl)oxy)heptadecan-2-amine; format: functional; settings: time 7 day
[32] = system: Mycolicibacterium smegmatis; assay: Antimycobacterial activity against Mycobacterium smegmatis ATCC607 assessed as reduction in bacterial viability at 19.5 uM incubated for 24 hrs by time kill assay relative to control; format: functional
[33] = system: Mycolicibacterium smegmatis; assay: Antimycobacterial activity against Mycobacterium smegmatis ATCC607 infected in mouse J774 cells assessed as reduction in intracellular bacterial count at 19.5 to 39 uM measured after 24 hrs; format: functional, organism-based; settings: dose 19.5-39 µM
[34] = system: Mycobacterium tuberculosis; assay: Antimycobacterial activity against Mycobacterium tuberculosis H37Rv ATCC 25618 assessed as fractional inhibitory concentration incubated for 7 days in presence of 2-aminoheptadecan-1-ol by resazurin dye based two-dimensional micro dilution checkerboard assay; format: functional; settings: time 7 day
[35] = system: Mycobacterium tuberculosis; assay: Additive antimycobacterial activity against Mycobacterium tuberculosis H37Rv ATCC 25618 assessed as fractional inhibitory concentration index incubated for […] by micro dilution checkerboard assay in presence of rifampicin; format: functional
[36] = system: Mycobacterium tuberculosis; assay: Antimycobacterial activity against Mycobacterium tuberculosis H37Rv ATCC 25618 incubated for 7 days by resazurin dye based two-dimensional micro dilution checkerboard assay in presence of rifampicin; format: functional; settings: time 7 day
[37] = system: Mycobacterium tuberculosis; assay: Antimycobacterial activity against Mycobacterium tuberculosis H37Rv ATCC 25618 assessed as fractional inhibitory concentration index incubated for 7 days by resazurin dye based two-dimensional micro dilution checkerboard assay in presence of rifampicin; format: functional; settings: time 7 day

Structure (SMILES): CCCCCCCCCCCCCCCC(N)COCc1cc(OC)c(OC)c(OC)c1 (stereo not drawn)
- MIC [1]: 8 µM (≈ 3.61 µg/mL)
- Ratio [2]: 45
- CC50 at 48 h [3]: 17.7 µM
- CC50 at 48 h [4]: 120 µM
- CC50 at 48 h [5]: 149 µM
- MIC [6]: 16 µM (≈ 7.23 µg/mL)
- MIC (Staphylococcus aureus): ≤ 4 µM
- MIC (Klebsiella pneumoniae): 512 µM (≈ 231 µg/mL)
- FIC [7]: 0.25
- FIC [8]: 0.013
- FIC [9]: 0.125
- FIC [10]: 0.126
- FIC [11]: 0.127
- fractional inhibitory concentration index (FICI) [12]: 0.5
- fractional inhibitory concentration index (FICI) [13]: 0.63
- fractional inhibitory concentration index (FICI) [14]: 0.63
- fractional inhibitory concentration index (FICI) [15]: 0.63
- fractional inhibitory concentration index (FICI) [16]: 0.63
- Activity [17]: 75%
- Activity [18]: 99.9%
- Activity [19]: >99.9%
- Activity [20]: 6.2%
- Activity [21]: Active
- Activity [22]: 33.3%
- Activity [23]: 1.9 log10CFU/ml
- Activity [24]: 12.2%
- Activity [25]: Active
- Activity [26]: Active
- Activity [27]: Active
- Activity [28]: Tde
- Activity [29]: >1 log10CFU/ml

Structure (SMILES): CO[C@H]1/C=C/O[C@@]2(C)Oc3c(C)c(O)c4c(O)c(c(/C=N/N5CCN(C)CC5)c(O)c4c3C2=O)NC(=O)/C(C)=C\C=C\[C@H](C)[C@H](O)[C@@H](C)[C@@H](O)[C@@H](C)[C@H](OC(C)=O)[C@@H]1C [RIFAMPIN]
- MIC [1]: 0.04 µM and 0.03 µg/mL
- MIC [6]: 19.5 µM (≈ 16 µg/mL)
- FIC [30]: 0.063
- FIC [31]: 0.25
- Activity [32]: 27%
- Activity [33]: Active

Structure (SMILES): CCCCCCCCCCCCCCCC(N)CO (stereo not drawn)
- MIC [1]: 1.52 µM (≈ 0.413 µg/mL)
- Ratio [2]: 237
- CC50 at 48 h [3]: 125 µM
- CC50 at 48 h [4]: 10.2 µM
- CC50 at 48 h [5]: 129 µM
- MIC [6]: 128 µM (≈ 34.8 µg/mL)
- MIC (Staphylococcus aureus): 16 µM (≈ 4.34 µg/mL)
- MIC (Klebsiella pneumoniae): 512 µM (≈ 139 µg/mL)
- FIC [7]: 0.25
- FIC [8]: 0.5
- FIC [9]: 0.25
- FIC [10]: 0.5
- FIC [11]: 0.5
- fractional inhibitory concentration index (FICI) [12]: 0.38
- fractional inhibitory concentration index (FICI) [13]: 0.63
- fractional inhibitory concentration index (FICI) [14]: 0.75
- fractional inhibitory concentration index (FICI) [15]: 0.56
- fractional inhibitory concentration index (FICI) [16]: 0.53
- Activity [17]: 87.5%

Structure (SMILES): CC[C@@H](CO)NCCN[C@@H](CC)CO [ETHAMBUTOL]
- MIC [1]: 3.6 µM and 1 µg/mL
- Ratio [2]: 100
- CC50 at 48 h [3]: 641 µM
- CC50 at 48 h [4]: > 1440 µM
- CC50 at 48 h [5]: > 1440 µM
- FIC [34]: 0.125
- FIC [30]: 0.5
- FIC [31]: 0.5
- Activity [25]: Active
- Activity [26]: Active
- Activity [27]: Active

Structure (SMILES): CCCCCCCCCCCCCCCC(N)COCc1ccccc1 (stereo not drawn)
- MIC [1]: 4.5 µM (≈ 1.63 µg/mL)
- Ratio [2]: 80
- CC50 at 48 h [3]: 42.2 µM
- CC50 at 48 h [4]: 5.94 µM
- CC50 at 48 h [5]: 99.2 µM
- MIC [6]: 16 µM (≈ 5.79 µg/mL)
- MIC (Staphylococcus aureus): 16 µM (≈ 5.79 µg/mL)
- MIC (Klebsiella pneumoniae): 128 µM (≈ 46.3 µg/mL)
- FIC [8]: 0.5
- FIC [9]: 0.25
- FIC [10]: 0.5
- FIC [11]: 0.25
- fractional inhibitory concentration index (FICI) [13]: 1
- fractional inhibitory concentration index (FICI) [14]: 0.75
- fractional inhibitory concentration index (FICI) [15]: 0.75
- fractional inhibitory concentration index (FICI) [16]: 0.75
- Activity [18]: 24.56%
- Activity [19]: >99.9%
- fractional inhibitory concentration index (FICI) [35]: 0.56
- FIC [36]: 0.5
- fractional inhibitory concentration index (FICI) [37]: 0.56
